Results on 1 compound are retold here after patent publication US20050054586A1, “Treatment of ophthalmic disorders” (priority 2003, published 2005).

The structures appear in SMILES notation.

What all share (format): in vivo
For experiment [1], the system named is human patients with type-1 diabetes and affected by non-proliferative diabetic retinopathy. As to the kind of experiment: Clinical study: visual acuity assessed by eye chart. The settings on record: one tablet daily, 100 mg cloricromene hydrochloride; start of study versus one-year; 20 patients. How it is done: (§1) A clinical study was conducted in order to test the safety and efficacy of the compounds for treating ophthalmic disorders. The study included 40 human patients with type-1 diabetes and affected by non-proliferative diabetic retinopathy. Twenty of the patients received one tablet daily containing cloricromene hydrochloride (100 mg), whereas twenty of the patients formed a control group and received no treatment. Patients were randomly assigned either to receive cloricromene or to receive no treatment. The patients included males and females over 45 years of age assessed with type-1 diabetes mellitus and non-proliferative retinopathy assessed by fundus photography and fluoroscein angiography. For patients with bilateral disease, both eyes were evaluated. For patients with unilateral disease, the affected eye served as the study eye. Excluded from the study were subjects: affected with proliferative diabetic retinopathy; having visual acuity less than 2/10; with a history of renal failure; or receiving treatment with anti-coagulants, platelet anti-aggregants, or fibrinolytics.
(§2) The results summarized in the following tables are based on start of study versus one-year study period. Visual acuity was assessed by the patients' use of an eye chart. The presence of hemorrhaging, hard exudates or vascular leakage in the retina was evaluated as a means of grading degree of retinal lesion. Hemorrhaging and hard exudates were assessed primarily by observing the stereoscopic color fundus photographs of the retain. Vascular leakage was assessed primarily by fluorescein staining.

Experiment [2] shares this test system. As to the kind of experiment: Clinical study: retinal vascular leakage (fluorescein staining). The settings on record: one tablet daily, 100 mg cloricromene hydrochloride; start of study versus one-year; 20 patients. How it is done: as §1, §2
The test system is the same in experiment [3]. As to the kind of experiment: Clinical study: overall progression of retinal damage. The note with it: one tablet daily, 100 mg; one-year study period; versus untreated controls. How it is done: as §1, with “Excluded from the study were subjects: affected with proliferative diabetic retinopathy; having visual acuity less than 2/10; with a history of renal failure; or receiving treatment with anti-coagulants, platelet anti-aggregants, or fibrinolytics.” left out
as §2

Experiment [4] shares this test system. As to the kind of experiment: Clinical study: hard exudates in the retina (stereoscopic color fundus photographs). The settings on record: one tablet daily, 100 mg cloricromene hydrochloride; start of study versus one-year; 20 patients. How it is done: as §1, §2
Experiment [5] shares this test system. As to the kind of experiment: Clinical study: retinal hemorrhages (stereoscopic color fundus photographs). The settings on record: one tablet daily, 100 mg cloricromene hydrochloride; start of study versus one-year; 20 patients. How it is done:
as §1, §2

For `CCOC(=O)COc1ccc2c(C)c(CCN(CC)CC)c(=O)oc2c1Cl` [Cloricromene, cloricromene], in experiment [1], the “Visual Acuity: Improved, number of patients (%)” value is 11 (55%); the “Visual Acuity: Stable, number of patients (%)” value is 8 (40%); the “Visual Acuity: Worse, number of patients (%)” value is 1 (5%). Moreover, in experiment [2], the “Vascular Leakage: Improved, number of patients (%)” value is 3 (15%); the “Vascular Leakage: Stable, number of patients (%)” value is recorded as 16 (80%); the “Vascular Leakage: Worse, number of patients (%)” value was 1 (5%). For the same compound, the “progression of retinal damage in diabetic patients” value in experiment [3] is listed as “effective in delaying the progression of retinal damage”. Besides, in experiment [4], the “Hard Exudates: Improved, number of patients (%)” value is listed as 14 (70%); the “Hard Exudates: Stable, number of patients (%)” value is given as 6 (30%); the “Hard Exudates: Worse, number of patients (%)” value is listed as 0 (0%). For the same compound, in experiment [5], the “Retinal Hemorrhages: Improved, number of patients (%)” value is given as 13 (65%); the “Retinal Hemorrhages: Stable, number of patients (%)” value is 6 (30%); the “Retinal Hemorrhages: Worse, number of patients (%)” value was 1 (5%).
